Legend:
Type in all cases: functional
[1] = system: HCT-116; test: Induction of apoptosis in Bax deficient human HCT116 cells assessed as early apoptotic cells at […] after 24 hrs by Annexin V-FITC/propidium iodide staining based flow cytometry (reference value: 0.85%)
[2] = system: HCT-116; test: Induction of apoptosis in human HCT116 cells assessed as late apoptotic cells at […] after 24 hrs by Annexin V-FITC/propidium iodide staining based flow cytometry (reference value: 3.73%)
[3] = system: HCT-116; test: Induction of apoptosis in human HCT116 cells assessed as necrotic cells at […] after 24 hrs by Annexin V-FITC/propidium iodide staining based flow cytometry (reference value: 0.44%)
[4] = system: HCT-116; test: Induction of apoptosis in Bax deficient human HCT116 cells assessed as late apoptotic cells at […] after 24 hrs by Annexin V-FITC/propidium iodide staining based flow cytometry (reference value: 1.56%)
[5] = system: HCT-116; test: Induction of apoptosis in human HCT116 cells assessed as viable cells at […] after 24 hrs by Annexin V-FITC/propidium iodide staining based flow cytometry (reference value: 93.64%); conditions: HCT-116, 24 h, read-out: Activity
[6] = system: HCT-116; test: Induction of apoptosis in human HCT116 cells assessed as early apoptotic cells at […] after 24 hrs by Annexin V-FITC/propidium iodide staining based flow cytometry (reference value: 2.2%)
[7] = system: HCT-116; test: Induction of apoptosis in human HCT116 cells assessed as late apoptotic cells at 10 uM after 12 hrs by Annexin V-FITC/propidium iodide staining based flow cytometry (reference value: 3.37%)
[8] = system: HCT-116; test: Induction of apoptosis in human HCT116 cells assessed as early apoptotic cells at 10 uM after 12 hrs by Annexin V-FITC/propidium iodide staining based flow cytometry (reference value: 1.13%)

Structure (SMILES)	Activity [1] [%]	Activity [2] [%]	Activity [3] [%]	Activity [4] [%]	viability [5] [%]	Activity [6] [%]	Activity [7] [%]	Activity [8] [%]
CC(=O)N[C@@H](CS)C(=O)O [ACETYLCYSTEINE]	1.21	5.62	0.7	1.75	91.8	1.86		
OC(CS)C(O)CS (racemic) [DL-DITHIOTHREITOL]	2.99	8.67	0.21	3.5	88	3.12		
CO[C@H]1C(C=O)=CC[C@@H]2C3=C(C(C)C)CC[C@]3(C)CC[C@@]2(C)[C@H]1O							3.68	3.83

From ChEMBL document CHEMBL3769391, “Identification of a new cyathane diterpene that induces mitochondrial and autophagy-dependent apoptosis and shows a potent in vivo anti-colorectal cancer activity” (Eur J Med Chem, 2016)
